# Source: paper PMC8482806, “A Novel Blood-Brain Barrier-Permeable Chemotherapeutic Agent for the Treatment of Glioblastoma” (Cureus, 2021)
# Assay: [14C]-QBS10072S distribution by quantitative whole-body autoradiography in mice with intracranial LN229 tumors
# Assay type: in vivo, mouse
# Details: 5 mg/kg IV
# Experimental: Athymic mice with intracranial implanted LN229 cells received a single IV dose of 5 mg/kg and 200 μCi/kg [14C]-QBS10072S into the tail vein using the formulation described above. Animals (one per time point) were sacrificed one, eight, and 24 hours post-dose, and frozen in a hexane/solid carbon dioxide bath for at least 10 minutes. The carcasses were processed as described for quantitative whole-body autoradiography. Briefly, sagittal sections (~ 40 μm thick) were cut using a microtome, mounted, and exposed to a [14C]-sensitive phosphor imaging plate for four days. The images were scanned and quantitated by image densitometry using MCID image analysis software. The concentrations of radioactivity were expressed as the μg equivalents of test article per gram sample (μg equiv/g). The upper and lower limits of quantification were 550 and 0.008 μg equiv/g, respectively (QPS, Newark, DE).
smiles,measurement,setting,value
"Cc1ccc(N(CCCl)C[14CH2]Cl)cc1C[C@H](N)CC(=O)O.Cl.Cl [[14C]-QBS10072S, [chloroethyl-2-14C]-QBS10072S×2HCl]",Tissue Concentration,"Adipose (brown), 1 h",2.528 µg equiv/g tissue
same,Tissue Concentration,"Adipose (brown), 8 h",0.440 µg equiv/g tissue
same,Tissue Concentration,"Adipose (brown), 24 h",0.577 µg equiv/g tissue
same,Tissue Concentration,"Adipose (white), 1 h",0.409 µg equiv/g tissue
same,Tissue Concentration,"Adipose (white), 8 h",0.348 µg equiv/g tissue
same,Tissue Concentration,"Adipose (white), 24 h",0.381 µg equiv/g tissue
same,Tissue Concentration,"Adrenal Gland, 1 h",2.700 µg equiv/g tissue
same,Tissue Concentration,"Adrenal Gland, 8 h",0.638 µg equiv/g tissue
same,Tissue Concentration,"Adrenal Gland, 24 h",0.533 µg equiv/g tissue
same,Tissue Concentration,"Blood (cardiac), 1 h",2.204 µg equiv/g tissue
same,Tissue Concentration,"Blood (cardiac), 8 h",0.581 µg equiv/g tissue
same,Tissue Concentration,"Blood (cardiac), 24 h",0.734 µg equiv/g tissue
same,Tissue Concentration,"Bone, 1 h",0.350 µg equiv/g tissue
same,Tissue Concentration,"Bone, 8 h",0.165 µg equiv/g tissue
same,Tissue Concentration,"Bone, 24 h",0.065 µg equiv/g tissue
same,Tissue Concentration,"Brain (cerebellum), 1 h",0.395 µg equiv/g tissue
same,Tissue Concentration,"Brain (cerebellum), 8 h",0.105 µg equiv/g tissue
same,Tissue Concentration,"Brain (cerebellum), 24 h",0.120 µg equiv/g tissue
same,Tissue Concentration,"Brain (cerebrum), 1 h",0.469 µg equiv/g tissue
same,Tissue Concentration,"Brain (cerebrum), 8 h",0.109 µg equiv/g tissue
same,Tissue Concentration,"Brain (cerebrum), 24 h",0.101 µg equiv/g tissue
same,Tissue Concentration,"Brain (medulla), 1 h",0.403 µg equiv/g tissue
same,Tissue Concentration,"Brain (medulla), 8 h",0.081 µg equiv/g tissue
same,Tissue Concentration,"Brain (medulla), 24 h",0.118 µg equiv/g tissue
same,Tissue Concentration,"Cecum (contents), 1 h",3.895 µg equiv/g tissue
same,Tissue Concentration,"Cecum (contents), 8 h",24.266 µg equiv/g tissue
same,Tissue Concentration,"Cecum (contents), 24 h",9.502 µg equiv/g tissue
same,Tissue Concentration,"Cecum, 1 h",2.419 µg equiv/g tissue
same,Tissue Concentration,"Cecum, 8 h",0.924 µg equiv/g tissue
same,Tissue Concentration,"Cecum, 24 h",0.655 µg equiv/g tissue
same,Tissue Concentration,"Choroid Plexus, 1 h",0.815 µg equiv/g tissue
same,Tissue Concentration,"Choroid Plexus, 8 h",0.159 µg equiv/g tissue
same,Tissue Concentration,"Choroid Plexus, 24 h",0.186 µg equiv/g tissue
same,Tissue Concentration,"Esophagus, 1 h",1.211 µg equiv/g tissue
same,Tissue Concentration,"Esophagus, 8 h",0.442 µg equiv/g tissue
same,Tissue Concentration,"Esophagus, 24 h",0.565 µg equiv/g tissue
same,Tissue Concentration,"Harderian Gland, 1 h",3.371 µg equiv/g tissue
same,Tissue Concentration,"Harderian Gland, 8 h",0.468 µg equiv/g tissue
same,Tissue Concentration,"Harderian Gland, 24 h",0.329 µg equiv/g tissue
same,Tissue Concentration,"Heart, 1 h",2.165 µg equiv/g tissue
same,Tissue Concentration,"Heart, 8 h",0.489 µg equiv/g tissue
same,Tissue Concentration,"Heart, 24 h",0.480 µg equiv/g tissue
same,Tissue Concentration,"Kidney (outer medulla), 1 h",6.281 µg equiv/g tissue
same,Tissue Concentration,"Kidney (outer medulla), 8 h",1.372 µg equiv/g tissue
same,Tissue Concentration,"Kidney (outer medulla), 24 h",1.164 µg equiv/g tissue
same,Tissue Concentration,"Large Intestine, 1 h",1.437 µg equiv/g tissue
same,Tissue Concentration,"Liver, 1 h",5.522 µg equiv/g tissue
same,Tissue Concentration,"Liver, 8 h",0.674 µg equiv/g tissue
same,Tissue Concentration,"Liver, 24 h",0.598 µg equiv/g tissue
same,Tissue Concentration,"Lung, 1 h",2.943 µg equiv/g tissue
same,Tissue Concentration,"Lung, 8 h",0.684 µg equiv/g tissue
same,Tissue Concentration,"Lung, 24 h",0.620 µg equiv/g tissue
same,Tissue Concentration,"Mammary Gland Region, 1 h",0.485 µg equiv/g tissue
same,Tissue Concentration,"Mammary Gland Region, 8 h",0.173 µg equiv/g tissue
same,Tissue Concentration,"Mammary Gland Region, 24 h",0.365 µg equiv/g tissue
same,Tissue Concentration,"Ovary, 1 h",2.564 µg equiv/g tissue
same,Tissue Concentration,"Ovary, 8 h",0.563 µg equiv/g tissue
same,Tissue Concentration,"Ovary, 24 h",0.585 µg equiv/g tissue
same,Tissue Concentration,"Pancreas, 1 h",3.270 µg equiv/g tissue
same,Tissue Concentration,"Pancreas, 8 h",0.546 µg equiv/g tissue
same,Tissue Concentration,"Pancreas, 24 h",0.442 µg equiv/g tissue
same,Tissue Concentration,"Pituitary Gland, 1 h",1.689 µg equiv/g tissue
same,Tissue Concentration,"Pituitary Gland, 8 h",0.468 µg equiv/g tissue
same,Tissue Concentration,"Pituitary Gland, 24 h",0.128 µg equiv/g tissue
same,Tissue Concentration,"Salivary Gland, 1 h",2.429 µg equiv/g tissue
same,Tissue Concentration,"Salivary Gland, 8 h",0.428 µg equiv/g tissue
same,Tissue Concentration,"Salivary Gland, 24 h",0.368 µg equiv/g tissue
same,Tissue Concentration,"Skeletal Muscle, 1 h",1.123 µg equiv/g tissue
same,Tissue Concentration,"Skeletal Muscle, 8 h",0.602 µg equiv/g tissue
same,Tissue Concentration,"Skeletal Muscle, 24 h",0.627 µg equiv/g tissue
same,Tissue Concentration,"Skin, 1 h",1.496 µg equiv/g tissue
same,Tissue Concentration,"Skin, 8 h",0.479 µg equiv/g tissue
same,Tissue Concentration,"Skin, 24 h",0.425 µg equiv/g tissue
same,Tissue Concentration,"Spinal Cord, 1 h",0.480 µg equiv/g tissue
same,Tissue Concentration,"Spinal Cord, 8 h",0.100 µg equiv/g tissue
same,Tissue Concentration,"Spinal Cord, 24 h",0.120 µg equiv/g tissue
same,Tissue Concentration,"Thyroid, 1 h",1.802 µg equiv/g tissue
same,Tissue Concentration,"Thyroid, 8 h",0.374 µg equiv/g tissue
same,Tissue Concentration,"Thyroid, 24 h",0.653 µg equiv/g tissue
same,Tissue Concentration,"Tumor High, 1 h",2.836 µg equiv/g tissue
same,Tissue Concentration,"Tumor High, 8 h",0.575 µg equiv/g tissue
same,Tissue Concentration,"Tumor High, 24 h",0.479 µg equiv/g tissue
same,Tissue Concentration,"Tumor Low, 1 h",1.245 µg equiv/g tissue
same,Tissue Concentration,"Tumor Low, 8 h",0.162 µg equiv/g tissue
same,Tissue Concentration,"Tumor Low, 24 h",0.240 µg equiv/g tissue
same,Tissue Concentration,"Tumor, 1 h",1.961 µg equiv/g tissue
same,Tissue Concentration,"Tumor, 8 h",0.427 µg equiv/g tissue
same,Tissue Concentration,"Tumor, 24 h",0.275 µg equiv/g tissue
same,Tissue Concentration,"Urinary Bladder (contents), 1 h",206.798 µg equiv/g tissue
same,Tissue Concentration,"Urinary Bladder (contents), 8 h",1.716 µg equiv/g tissue
same,Tissue Concentration,"Urinary Bladder (contents), 24 h",0.811 µg equiv/g tissue
same,Tissue Concentration,"Urinary Bladder, 1 h",3.914 µg equiv/g tissue
same,Tissue Concentration,"Urinary Bladder, 8 h",0.821 µg equiv/g tissue
same,Tissue Concentration,"Urinary Bladder, 24 h",0.485 µg equiv/g tissue
same,Tissue Concentration,"Uterus, 1 h",1.849 µg equiv/g tissue
same,Tissue Concentration,"Uterus, 8 h",0.563 µg equiv/g tissue
same,Tissue Concentration,"Uterus, 24 h",0.511 µg equiv/g tissue
same,Tissue Concentration,"Vagina, 1 h",1.337 µg equiv/g tissue
same,Tissue Concentration,"Vagina, 8 h",0.640 µg equiv/g tissue
same,Tissue Concentration,"Vagina, 24 h",0.629 µg equiv/g tissue
